From patent US7939513B2, “Tetracycline derivatives as antibacterial agents” (Dr. Reddy's Laboratories Limited, priority 2007, dated 2011)
≈ marks a conversion by molar mass, not a printed value. Structures can show the parent of a compound that is named as a salt. Where two headings read alike, the source gives them in different places.

Experiments:
[1] = system: MRSA DRCC 446; assay: ED50 in murine systemic infection model; assay type: in vivo; conditions: Staphylococcus aureus, 120 h, Swiss Albino Mice, survival 5 days
Method: (§1) Animals: Specific pathogen free outbred, female and male Swiss Albino Mice, 4-6 weeks old, weighing 25±2 grams.
(§2) Inoculum Preparation: • Systemic infection model is performed based on LD50 of an organism. 10-1000×LD50 or 1-5 MLD (minimum lethal dose) is used as an infecting inoculum. • Organisms are sub-cultured on blood agar plates and incubated at 35-37° C. for 18-24 hours. Inoculum is prepared in 0.9% normal saline and optical density adjusted at 560 nm to yield an inoculum density of 10^5 to 10^9CFU/mL based on the test organism. • Adjusted inoculum is further diluted 1:1 in mucin solution to achieve a final mucin concentration of 5-7.5% (wt/vol). • Log CFUs of inoculum is determined by serially diluting the inoculum in normal saline and plating on suitable agar plates. Plates are incubated at 35-37° C. for 18-24 hours and counts determined.
(§3) Infection: • Animals are infected with 0.5 ml of inoculum by intra-peritoneal route. • Two groups of mice left untreated, serve as untreated control.
(§4) Treatment: • For single dose, compound of formula (I) is administered at 0 to 3 hour post-infection by p.o./s.c./i.v. route. • For b.i.d., compound of formula (I) administered at 0 to 3 hour post-infection for first dose and at 4 to 6 hours post-infection for second dose by p.o./s.c./i.v. route.
(§5) End point: Survival/death in each treated and untreated groups are monitored for 5 days (7 days for S. pneumoniae). The ED50 values are determined by probit analysis.

[2] = system: S. pneumoniae ATCC 49619; assay: ED50 in murine systemic infection model; assay type: in vivo; conditions: Streptococcus pneumoniae, 168 h, Swiss Albino Mice, survival 7 days
Method: as §1, §2, §3, §4, §5

[3] = system: S. aureus DRCC 035 (ATCC 29213); assay: ED50 in murine systemic infection model; assay type: in vivo; conditions: Staphylococcus aureus, 120 h, Swiss Albino Mice, survival 5 days
Method: as §1, §2, §3, §4, §5

[4] = system: E faecalis DRCC 543; assay: ED50 in murine systemic infection model; assay type: in vivo; conditions: Enterococcus faecalis, 120 h, Swiss Albino Mice, survival 5 days
Method: as §1, §2, §3, §4, §5

[5] = system: E. Coli ATCC 25992; assay: ED50 in murine systemic infection model; assay type: in vivo; conditions: Escherichia coli, 120 h, Swiss Albino Mice, survival 5 days
Method: as §1, §2, §3, §4, §5

[6] = system: P. aeru DRCC 024 ATCC 27853; assay: In vitro MIC by broth microdilution; assay type: cell-based; conditions: Pseudomonas aeruginosa, ATCC27853
Method: (§6) Minimum Inhibition Concentrations (MICs) were determined by broth microdilution technique as per the guidelines prescribed in the fifth edition of Approved Standards NCCLS document M7-A5 Vol 20-No 2, 2000 Villinova, Pa. (Currently Clinical and Laboratory Standards Institute (CLSI)). Initial stock solution of the compound of formula (I) was prepared in DMSO. Subsequent two fold dilutions were carried out in sterile Cation adjusted Muller Hinton Broth (Difco) (MHB). Frozen cultures stocks were inoculated in 25 ml sterile MHB in 50 ml Erlyn Meyer flasks.
(§7) Composition of MHB is as follows: Beef Extract Powder—2.0 grams/litre, Acid Digest of Casein—17.5 grams/litre, Soluble Starch—1.5 grams/litre, Final pH 7.3±0.1
(§8) Flasks were incubated for 4 to 5 hours at 36±1° C. on a rotary shaker at 110 rpm. Inoculum was prepared by diluting the culture in sterile MHB to obtain a turbidity of 0.5 McFarland standard. This corresponds to 1−2×10^8 CFU/mL. The stock was further diluted to achieve a final inoculum density of 5×10^4 to 1×10^5 CFU/well. The plates were incubated 18 to 20 hours at 37° C.

[7] = system: E. faecalis DRCC 153 VRE NCTC 12201; assay: In vitro MIC by broth microdilution; assay type: cell-based; conditions: Enterococcus faecalis
Method: as §6, §7, §8

[8] = system: E. faecium DRCC 154 VRE NCTC 12202; assay: In vitro MIC by broth microdilution; assay type: cell-based; conditions: Enterococcus faecium
Method: as §6, §7, §8

[9] = system: K. pn DRCC 575 ATCC 700603; assay: In vitro MIC by broth microdilution; assay type: cell-based; conditions: Klebsiella pneumoniae, ATCC700603
Method: as §6, §7, §8

[10] = system: E. faecalis DRCC 034 VSE ATCC 29212; assay: In vitro MIC by broth microdilution; assay type: cell-based; conditions: Enterococcus faecalis, ATCC29212
Method: as §6, §7, §8

[11] = system: S. aureus DRCC 035 MSSA ATCC 29213; assay: In vitro MIC by broth microdilution; assay type: cell-based; conditions: Staphylococcus aureus
Method: as §6, §7, §8

[12] = system: S. aureus DRCC 019 MRSA ATCC 33591; assay: In vitro MIC by broth microdilution; assay type: cell-based; conditions: Staphylococcus aureus
Method: as §6, §7, §8

[13] = system: E. coli DRCC 018 ATCC 25922; assay: In vitro MIC by broth microdilution; assay type: cell-based; conditions: Escherichia coli, ATCC25922
Method: as §6, §7, §8

[14] = P. aeru DRCC 024, ATCC 27853, read-out: MIC
[15] = E. faecalis DRCC 153, VRE, NCTC 12201, read-out: MIC
[16] = E. faecium DRCC 154, VRE, NCTC 12202, read-out: MIC
[17] = K. pn DRCC 575, ATCC 700603, read-out: MIC
[18] = E. faecalis DRCC 034, VSE, ATCC 29212, read-out: MIC
[19] = S. aureus DRCC 035, MSSA, ATCC 29213, read-out: MIC
[20] = S. aureus DRCC 019, MRSA, ATCC 33591, read-out: MIC
[21] = E. coli DRCC 018, ATCC 25922, read-out: MIC

MIC [6, 14] [µg/mL] | MIC [7, 15] [µg/mL] | MIC [8, 16] [µg/mL] | MIC [9, 17] [µg/mL] | MIC [10, 18] [µg/mL] | MIC [11, 19] [µg/mL] | MIC [12, 20] [µg/mL] | MIC [13, 21] [µg/mL] | Structure (SMILES) | also measured
16 (≈ 27.4 µM) | 0.03 (≈ 0.0514 µM) | 0.01 (≈ 0.0171 µM) | 8 (≈ 13.7 µM) | 0.03 (≈ 0.0514 µM) | 0.12 (≈ 0.206 µM) | 0.25 (≈ 0.428 µM) | 0.12 (≈ 0.206 µM) | CN(C)c1cc(NC(=O)[C@@H]2CCCN2C)c(O)c2c1C[C@H]1C[C@H]3[C@H](N(C)C)C(O)=C(C(N)=O)C(=O)[C@@]3(O)C(O)=C1C2=O [Example 2, (S)—N-((5aR,6aS,7S,10aS)-9-carbamoyl-4,7-bis(dimethylamino)-1,8,10a,11-tetrahydroxy-10,12-dioxo-5,5a,6,6a,7,10,10a,12-octahydrotetracen-2-yl)-1-methylpyrrolidine-2-carboxamide] | ED50 ([1]; iv, MRSA DRCC 446, i.v.-q.d.): 0.77 mg/kg; ED50 ([1]; po, MRSA DRCC 446, p.o.-b.i.d.): 7.3 mg/kg; ED50 ([2]; ATCC49619, iv, S. pneumoniae ATCC 49619, i.v.-q.d.): 0.16 mg/kg; ED50 ([2]; ATCC49619, po, S. pneumoniae ATCC 49619, p.o.-b.i.d.): 6.2 mg/kg; ED50 ([3]; ATCC29213, iv, i.v.-q.d.): 0.6 mg/kg; ED50 ([3]; ATCC29213, po, p.o.-b.i.d.): 5.5 mg/kg; ED50 ([4]; DRCC543, iv, E faecalis DRCC 543, i.v.-q.d.): 0.28 mg/kg; ED50 ([4]; DRCC543, po, E faecalis DRCC 543, p.o.-b.i.d.): 2.53 mg/kg; ED50 ([5]; ATCC25992, iv, E. Coli ATCC 25992, i.v.-q.d.): 0.5 mg/kg; ED50 ([5]; ATCC25992, po, E. Coli ATCC 25992, p.o.-b.i.d.): 12.6 mg/kg
> 32 | 0.12 (≈ 0.201 µM) | 0.06 (≈ 0.1 µM) | 16 (≈ 26.8 µM) | 0.12 (≈ 0.201 µM) | 0.5 (≈ 0.837 µM) | 0.5 (≈ 0.837 µM) | 0.5 (≈ 0.837 µM) | CCN1CCC[C@H]1C(=O)Nc1cc(N(C)C)c2c(c1O)C(=O)C1=C(O)[C@]3(O)C(=O)C(C(N)=O)=C(O)[C@@H](N(C)C)[C@@H]3C[C@@H]1C2 [Example 3, (S)—N-((5aR,6aS,7S,10aS)-9-carbamoyl-4,7-bis(dimethylamino)-1,8,10a,11-tetrahydroxy-10,12-dioxo-5,5a,6,6a,7,10,10a,12-octahydrotetracen-2-yl)-1-ethylpyrrolidine-2-carboxamide] | 
> 32 | 0.5 (≈ 0.817 µM) | 0.12 (≈ 0.196 µM) | > 32 | 0.25 (≈ 0.409 µM) | 1 (≈ 1.63 µM) | 1 (≈ 1.63 µM) | 2 (≈ 3.27 µM) | CCCN1CCC[C@H]1C(=O)Nc1cc(N(C)C)c2c(c1O)C(=O)C1=C(O)[C@]3(O)C(=O)C(C(N)=O)=C(O)[C@@H](N(C)C)[C@@H]3C[C@@H]1C2 [Example 4, (S)—N-((5aR,6aS,7S,10aS)-9-carbamoyl-4,7-bis(dimethylamino)-1,8,10a,11-tetrahydroxy-10,12-dioxo-5,5a,6,6a,7,10,10a,12-octahydrotetracen-2-yl)-1-propylpyrrolidine-2-carboxamide] | 
 |  |  |  |  |  |  |  | CC(C)CN1CCC[C@H]1C(=O)Nc1cc(N(C)C)c2c(c1O)C(=O)C1=C(O)[C@]3(O)C(=O)C(C(N)=O)=C(O)[C@@H](N(C)C)[C@@H]3C[C@@H]1C2 [Example 7, (S)—N-((5aR,6aS,7S,10aS)-9-carbamoyl-4,7-bis(dimethylamino)-1,8,10a,11-tetrahydroxy-10,12-dioxo-5,5a,6,6a,7,10,10a,12-octahydrotetracen-2-yl)-1-isobutylpyrrolidine-2-carboxamide dihydrochloride] | MIC [6]: 64 µg/mL; MIC [7]: 1 µg/mL; MIC [8]: 0.5 µg/mL; MIC [9]: 128 µg/mL; MIC [10]: 0.5 µg/mL; MIC [11]: 2 µg/mL; MIC [12]: 2 µg/mL; MIC [13]: 4 µg/mL
